Here are results for three molecules from patent publication US4544747A, “Quinoline carboxylic acid derivatives” (Otsuka Pharmaceutical Company, Limited, priority 1979, dated 1985).

Series [1] concerns rats. Briefly: Acute toxicity test, oral, rats. Particulars: rats (Wister strain, male).
Series [2] concerns Erwinia carotovora. Briefly: Antimicrobial-activity test 2, agar dilution plate method, bacteria (A: soft rot of vegetable). Format: cell-based. Conditions: Pectobacterium carotovorum, 10^8 cells/ml, PDA medium, read-out: Minimum inhibitory concentration. The text has this: A: Soft rot of vegetable (Erwinia carotovora)
In series [3] the test system is Xanthomonas oryzae. Briefly: microbe, parasite or virus in culture. Format: cell-based. Conditions: read-out: Minimum inhibitory concentration.
The subject of series [4] is Xanthomonas pruni. Briefly: Antimicrobial-activity test 2, agar dilution plate method, bacteria (C: peach bacterial spot). Format: cell-based. Particulars: Xanthomonas arboricola, 10^8 cells/ml, PDA medium, read-out: Minimum inhibitory concentration. The text has this:
C: Peach bacterial spot (Xanthomonas pruni)
In general terms: In agar dilution, organisms are placed on agar that contains the substance at set levels.

The test system of series [5] is Pseudomonas solanacearum. Briefly: microbe, parasite or virus in culture. The class given is cell-based. Conditions: Ralstonia solanacearum, read-out: Minimum inhibitory concentration.
Series [6] relates to Pseudomonas lachrymans. Briefly: Antimicrobial-activity test 2, agar dilution plate method, bacteria (F: angular leaf spot of cucumber). Conditions: 10^8 cells/ml, PDA medium, read-out: Minimum inhibitory concentration. Format: cell-based. The text has this: F: Angular leaf spot of cucumber (Pseudomonas lachrymans)
The test system of series [7] is Pyrisularia oryzae. Briefly: microbe, parasite or virus in culture. Format: cell-based. Conditions: Pyricularia oryzae, 48 h, read-out: Minimum inhibitory concentration.
Series [8] has as its system Phytophthora melonis. Briefly: microbe, parasite or virus in culture. Particulars: 48 h, read-out: Minimum inhibitory concentration. The class given is cell-based.
Series [9] concerns Phytophthora capsici. Briefly: Antimicrobial-activity test 2, mycelial disc on agar plate, fungi (J: leaf blight of cucumber). Particulars: 48 h, complete inhibition of mycelial growth, 2 days, PDA medium, read-out: Minimum inhibitory concentration. The class given is cell-based. An excerpt:
J: Leaf blight of cucumber (Phytophthora capsici)

Series [10] deals with Colletotrichum lagenarium. Briefly: Antimicrobial-activity test 2, mycelial disc on agar plate, fungi (K: anthracnose of cucumber). The class given is cell-based. Conditions: Colletotrichum orbiculare, 48 h, complete inhibition of mycelial growth, 2 days, PDA medium, read-out: Minimum inhibitory concentration. The text has this: K: Anthracnose of cucumber (Colletotrichum lagenarium)

Series [11] has as its system Sclerotinia sclerotiorum. Briefly: Antimicrobial-activity test 2, mycelial disc on agar plate, fungi (L: stem rot of eggplant). Conditions: 48 h, complete inhibition of mycelial growth, 2 days, PDA medium, read-out: Minimum inhibitory concentration. Format: cell-based. An excerpt: L: Stem rot of eggplant (Sclerotinia sclerotiorum)
Series [12] concerns Mycosphaerella melonis. Briefly: Antimicrobial-activity test 2, mycelial disc on agar plate, fungi (M: gummy stem blight of melon). Format: cell-based. Particulars: 48 h, complete inhibition of mycelial growth, 2 days, PDA medium, read-out: Minimum inhibitory concentration. The text has this: […] blight of melon (Mycosphaerella melonis)
Series [13] relates to Alternaria solani. Briefly: Antimicrobial-activity test 2, mycelial disc on agar plate, fungi (N: early blight of tomato). Conditions: 48 h, complete inhibition of mycelial growth, 2 days, PDA medium, read-out: Minimum inhibitory concentration. Format: cell-based. The text has this:
N: Early blight of tomato (Alternaria solani)

Series [14] deals with Xanthomonas citri. Briefly: Antimicrobial-activity test 2, agar dilution plate method, bacteria (D: citrus canker). Conditions: read-out: Minimum inhibitory concentration.
Series [15] relates to Erwinia carotovora (soft-rot causing bacterium). Briefly: Antimicrobial-activity test 3, incidence of soft rot on inoculated Japanese radish disks. Particulars: 28° C.
Series [16] has as its system Helminthosporium oryzae. Briefly: Antimicrobial-activity test 2, mycelial disc on agar plate, fungi (H: Helminthosporium leaf spot). Conditions: Bipolaris oryzae, 48 h, read-out: Minimum inhibitory concentration.
[17] abbreviates: 15.6 μg/ml, test specimen 1, 24 hours.
The mark [18] stands for this setting: 15.6 μg/ml, test specimen 2, 24 hours.
The mark [19] stands for this setting: 15.6 μg/ml, test specimen 3, 24 hours.
Setting [20] is: 15.6 μg/ml, test specimen 4, 24 hours.
Setting [21] is: 15.6 μg/ml, test specimen 5, 24 hours.
Setting [22] is: 31.3 μg/ml, test specimen 1, 24 hours.
Setting [23] is: 31.3 μg/ml, test specimen 2, 24 hours.
Where [24] appears, read: 31.3 μg/ml, test specimen 3, 24 hours.
The mark [25] stands for this setting: 31.3 μg/ml, test specimen 4, 24 hours.
Where [26] appears, read: 31.3 μg/ml, test specimen 5, 24 hours.
Setting [27] is: 62.5 μg/ml, test specimen 1, 24 hours.
Setting [28] is: 62.5 μg/ml, test specimen 2, 24 hours.
Setting [29] is: 62.5 μg/ml, test specimen 3, 24 hours.
[30] abbreviates: 62.5 μg/ml, test specimen 4, 24 hours.
Where [31] appears, read: 62.5 μg/ml, test specimen 5, 24 hours.
Setting [32] is: 125 μg/ml, test specimen 1, 24 hours.
The mark [33] stands for this setting: 125 μg/ml, test specimen 2, 24 hours.
Setting [34] is: 125 μg/ml, test specimen 3, 24 hours.
Where [35] appears, read: 125 μg/ml, test specimen 4, 24 hours.
Setting [36] is: 125 μg/ml, test specimen 5, 24 hours.

Converted amounts (≈) assume the structure as drawn.

In the case of `CCn1cc(C(=O)O)c(=O)c2ccc(N3CCNCC3)c(C)c21` [Compound 1, 1-Ethyl-7-(1-piperazinyl)-8-methyl-4-oxo-1,4-dihydroquinoline-3-carboxylic acid], in series [1], the “estimated LD50” value is “not less than 500 mg/kg”.
Turning to `CCn1cc(C(=O)O)c(=O)c2ccc(Cl)c(C)c21` [Compound 2, 1-ethyl-7-chloro-8-methyl-4-oxo-1,4-dihydroquinoline-3-carboxylic acid], the MIC is 0.2 µg/mL (≈ 0.753 µM) in [2]; 0.2 µg/mL (≈ 0.753 µM) in [3]; 0.4 µg/mL (≈ 1.51 µM) in [4]; 0.1 µg/mL (≈ 0.376 µM) in series [5]; 100 µg/mL (≈ 376 µM) in [6]; 50 µg/mL (≈ 188 µM) in [7]. The MIC in [8] came to 12.5 µg/mL (≈ 47 µM); in series [9], 25 µg/mL (≈ 94.1 µM); in series [10], 100 µg/mL (≈ 376 µM); in [11], 100 µg/mL (≈ 376 µM); in series [12], 50 µg/mL (≈ 188 µM); in series [13] it was 50 µg/mL (≈ 188 µM). Further, the MIC in [14] was found to be 0.1 µg/mL (≈ 0.376 µM); in [16] it was 50 µg/mL (≈ 188 µM). Also, in series [1], the “estimated LD50” value is reported as “not less than 500 mg/kg”. In addition, the Disease incidence index in series [15] (setting [17]) was 0 (0); in series [15] (setting [18]), 1 (0< ≤1/3); in series [15] (setting [19]) it was 1 (0< ≤1/3); in [15] (setting [20]) it was 1 (0< ≤1/3); in series [15] (setting [21]) it was 1 (0< ≤1/3); in series [15] (setting [22]), 0 (0). Further, the Disease incidence index is given as 0 (0) in series [15] (setting [23]); 0 (0) in [15] (setting [24]); 1 (0< ≤1/3) in [15] (setting [25]); 1 (0< ≤1/3) in series [15] (setting [26]); 0 (0) in series [15] (setting [27]); 0 (0) in [15] (setting [28]). Moreover, the Disease incidence index in series [15] (setting [29]) is on record as 0 (0); in [15] (setting [30]), 0 (0); in series [15] (setting [31]), 1 (0< ≤1/3); in [15] (setting [32]), 0 (0); in series [15] (setting [33]) it was 0 (0); in series [15] (setting [34]), 0 (0). Besides, the Disease incidence index in series [15] (setting [35]) was 0 (0); in series [15] (setting [36]), 1 (0< ≤1/3).
For the molecule `[H]/N=C(/N)N[C@H]1[C@H](O)[C@@H](O)[C@H](O[C@@H]2O[C@@H](C)[C@](O)(C=O)[C@H]2O[C@@H]2O[C@@H](CO)[C@H](O)[C@@H](O)[C@@H]2NC)[C@@H](N/C(N)=N\[H])[C@@H]1O` [Streptomycin, reference compound], the Disease incidence index in [15] (setting [17]) is 3; in series [15] (setting [18]) it was 3; in series [15] (setting [19]), 3; in series [15] (setting [20]), 3; in series [15] (setting [21]) it was 3; in series [15] (setting [22]) it was 2. For the same molecule, the Disease incidence index is listed as 2 in [15] (setting [23]); 3 in [15] (setting [24]); 3 in series [15] (setting [25]); 3 in [15] (setting [26]); 1 (0< ≤1/3) in [15] (setting [27]); 1 (0< ≤1/3) in series [15] (setting [28]). The Disease incidence index in [15] (setting [29]) was 2; in series [15] (setting [30]), 2; in series [15] (setting [31]), 2; in series [15] (setting [32]), 1 (0< ≤1/3); in series [15] (setting [33]), 1 (0< ≤1/3); in series [15] (setting [34]), 1 (0< ≤1/3). For the same molecule, the Disease incidence index in series [15] (setting [35]) and in series [15] (setting [36]) was 1 (0< ≤1/3) throughout.
